Results: patent publication US4006144A, “10,11-Dihydro-dibenzo(b,f)thiepin derivatives” (Hoffmann-La Roche Inc., priority 1972, dated 1977)
Counter-ions that a name gives are not always drawn. Like-named read-outs stand apart in the source and are kept apart here.

Assays:
Assay type in all cases: in vivo
[1] = tested on: homovanillic acid (HVA); test: Determination of homovanillic acid (turnover of dopamine in the basal ganglia); conditions: rats; for Increase of HVA: 2 hours, untreated rats fixed at 100%
Experimental: Rats are injected with the derivative to be tested 2 hours before they are killed.
Homovanillic acid is extracted from the supernatant of the brain homogenate into butyl acetate and later into an aqueous solution and oxidised with potassium ferricyanide to a fluorescent dimer. From the increased concentration of homovanillic acid (HVA) it can be concluded that the derivative under investigation acts like chlorpromazine, i.e. it increases the turnover of dopamine in the basal ganglia. The homovanillic acid titre in untreated rats is arbitrarily fixed at 100%.

[2] = tested on: rats; test: Pole climbing test; conditions: for Quotient ED10 (Blocking of the unconditioned reaction)/ED50 (Blocking of the conditioned reaction): higher = greater selectivity of neuroleptic action
Experimental: This test gives information about behaviour reactions of rats. Rats are trained to avoid, by climbing up a vertical pole in the test chamber, an electrical impulse (unconditioned impulse) released via the wire-latticed floor some seconds after an acoustic signal (conditioned impulse).
The blocking of the conditioned reaction is determined by the parameter ED50 (mg/kg p.o.); the blocking of the unconditioned reaction is determined by the parameter ED10 (mg/kg p.o.).
The parameter ED50 (blocking of the conditioned reaction) gives a measure of the neuroleptic activity strength of the test substance. The quotient ED10 (blocking of the unconditioned reaction)/ED50 (blocking of the conditioned reaction) gives a measure of the quality of action of the test substance, in that with increasing quotient a greater selectivity of the neuroleptic action (slighter neurotoxic side-effects) is present.

[3] = tested on: mice; test: Rotating rod test; conditions: for ED50: Mus musculus, po, read-out: ED50 (dose which reduces the holding time to 50%)
Experimental: In the rotating rod test, the ability of mice to achieve a coordinated, motoric performance is tested. After the peroral administration of the test substance, mice are placed on a horizontal, slowly rotating rod and the time until the mice fall off the rod is measured.

[4] = Cataleptic action in rats (homolateral extremities crossed position); conditions: rat, in vivo, ip
Experimental: (§1) The following products were investigated:
(§2) The amimals are considered to be cataleptic when the homolateral extremities remain for at least 10 seconds in the crossed position. The number of cataleptic animals is noted every 30 minutes for 6 hours.

[5] = tested on: rats; test: as above; conditions: rats, intraperitoneal
Experimental: as §1, §2

Row | Structure (SMILES) | Increase of HVA ([1]; 20 mg/kg p.o.) [%] | Quotient ED10 (Blocking of the unconditioned reaction)/ED50 (Blocking of the conditioned reaction) ([2]; p.o.) | ED50 [3] [mg/kg] | TD50 at 6 h [4] [mg/kg] | cataleptic action in comparison to chlorpromazine (in words) [5] | Increase of HVA ([1]; 50 mg/kg p.o.) [%] | activity in HVA test compared with chlorpromazine (in words) [1] | ED50 ([2]; Rattus norvegicus, po, read-out: ED50 (Blocking of the conditioned reaction)) [mg/kg] | neuroleptic action and quality (selectivity) compared with chlorpromazine (in words) ([2]; p.o.) | ED50 ([3]; mice, peroral) [mg/kg] | action in rotating rod test (in words) ([3]; mice, peroral) | TD50 at 6 h ([4]; rats, intraperitoneal, noted every 30 minutes for 6 hours, read-out: ED50 (dose at which 50% of the animals show catalepsy)) [mg/kg]
1 | CN(C)CCCN1c2ccccc2Sc2ccc(Cl)cc21 [Chlorpromazine, reference compound] | 321 | 3.5 | 5 |  |  |  |  |  |  |  |  | 
2 | O=C1OCCN1CCN1CCN(C2Cc3cc(Cl)ccc3Sc3ccccc32)CC1 (stereo not shown) [Product A, 3-[2-[4-(2-chloro-10,11-dihydro-dibenzo[b,f]thiepin-10-yl)-1-piperazinyl]-ethyl]-2-oxozolidinone maleate] |  | 4.2 |  | > 100 | no cataleptic action or only a slight cataleptic action | 340 | almost equalizes that of chloropromazine | 10 | strong neuroleptic action but also a quality (selectivity) of the neuroleptic action, both of which somewhat exceed that of chlorpromazine | 7.9 | strong action | 
3 | Cc1ccc2c(c1)CC(N1CCN(CCN3CCOC3=O)CC1)c1ccccc1S2.O=C(O)/C=C\C(=O)O (stereo not shown) [Product B, 3-[2-[4-(10,11-dihydro-2-methyl-dibenzo[b,f]thiepin-10-yl)-1-piperazinyl]-ethyl]-2-oxazolidinone maleate] |  |  |  |  | no cataleptic action or only a slight cataleptic action | 255 | almost equalizes that of chloropromazine |  |  |  |  | 70
